The values that follow come from patent publication US9676779B2, “Small molecule CFTR correctors” (DISCOVERYBIOMED, INC., priority 2012, dated 2017).

For this assay, the target named is T1, delF508-CFTR (Homo sapiens, UniProt P13569, DEL508-508).
T1 construct: Unaltered CFBE41o− cells were used as the model; endogenous in cells; host or cells: CFBE41o- human CF bronchial epithelial cells (delF508 homozygous, not overexpressing)
The experiment in a line: SPQ halide-sensitive fluorescence dye profiling assay (rescue of halide efflux). The assay is classed as cell-based. Conditions: for EC50 / EC50 (μM): SPQ assay, 8-point concentration-response curve, CFBE41o− cells; for Emax: VX-809 at 3 μM treated as 100% efficacy; for Efficacy Comparison to 3 μM VX-809: compared to VX-809 at 3 μM; for potency and efficacy versus VX-809 in SPQ profiling: compounds advanced to further profiling. The protocol: The method of profiling can include detecting the rescue of halide efflux from a cell. The step of detecting a rescue of halide efflux from the cell can be monitored using the halide quenched dye 6-methoxy-N-(3-sulfopropyl)-quinolinium (SPQ, Molecular Probes Inc., Eugene, Oreg.). In this method, cells are treated with a compound as described herein for a period of time (e.g., 48 hours). The rescue or correction of halide efflux is then detected using the SPQ assay with the halide dye. […] Optionally, the halide efflux is chloride efflux. The method of screening can further comprise performing the method with multiple concentrations of the compound.
The compounds were initially subjected to the SPQ halide-sensitive fluorescence dye profiling assay for rescue or correction of membrane chloride ion permeability or transport with an 8-point concentration-response curve. The EC50 values for the compounds described herein were determined and compared to the efficacy of the industry standard Vertex 809 (VX-809; Vertex Pharmaceuticals, Cambridge, Mass.) at 3 μM, which is the maximally effective profiling dose for VX-809 (Table 1). The VX-809 dosage at 3 μM was treated as having 100% efficacy in the comparison.
To perform the SPQ high throughput screening assay, CFBE41o− cells were seeded into 96-well microtiter plates and were loaded with the fluorescent halide-sensitive dye, SPQ, in serum-containing culture medium. Certain wells were loaded with known positive control corrector molecules, including VX-809. The test compounds were loaded into wells and were tested in triplicate wells at a 10 μM dose and incubated over 48 hours at room temperature. During the 48 hour period, SPQ was absorbed. Plates were washed in a sodium chloride (NaCl) based Ringer and read once over two minutes to set the baseline SPQ fluorescence activity. Then, NaCl was replaced by sodium nitrate (NaNO3) based Ringer. The plates were read twice over four minutes. The primary high throughput screen (HTS) data were analyzed to detect any function of rescued delF508-CFTR under basal conditions. The plate was read up to two times to complete the SPQ HTS assay.

T1 sequence (P13569 with tags, fused parts or gaps DEL508-508): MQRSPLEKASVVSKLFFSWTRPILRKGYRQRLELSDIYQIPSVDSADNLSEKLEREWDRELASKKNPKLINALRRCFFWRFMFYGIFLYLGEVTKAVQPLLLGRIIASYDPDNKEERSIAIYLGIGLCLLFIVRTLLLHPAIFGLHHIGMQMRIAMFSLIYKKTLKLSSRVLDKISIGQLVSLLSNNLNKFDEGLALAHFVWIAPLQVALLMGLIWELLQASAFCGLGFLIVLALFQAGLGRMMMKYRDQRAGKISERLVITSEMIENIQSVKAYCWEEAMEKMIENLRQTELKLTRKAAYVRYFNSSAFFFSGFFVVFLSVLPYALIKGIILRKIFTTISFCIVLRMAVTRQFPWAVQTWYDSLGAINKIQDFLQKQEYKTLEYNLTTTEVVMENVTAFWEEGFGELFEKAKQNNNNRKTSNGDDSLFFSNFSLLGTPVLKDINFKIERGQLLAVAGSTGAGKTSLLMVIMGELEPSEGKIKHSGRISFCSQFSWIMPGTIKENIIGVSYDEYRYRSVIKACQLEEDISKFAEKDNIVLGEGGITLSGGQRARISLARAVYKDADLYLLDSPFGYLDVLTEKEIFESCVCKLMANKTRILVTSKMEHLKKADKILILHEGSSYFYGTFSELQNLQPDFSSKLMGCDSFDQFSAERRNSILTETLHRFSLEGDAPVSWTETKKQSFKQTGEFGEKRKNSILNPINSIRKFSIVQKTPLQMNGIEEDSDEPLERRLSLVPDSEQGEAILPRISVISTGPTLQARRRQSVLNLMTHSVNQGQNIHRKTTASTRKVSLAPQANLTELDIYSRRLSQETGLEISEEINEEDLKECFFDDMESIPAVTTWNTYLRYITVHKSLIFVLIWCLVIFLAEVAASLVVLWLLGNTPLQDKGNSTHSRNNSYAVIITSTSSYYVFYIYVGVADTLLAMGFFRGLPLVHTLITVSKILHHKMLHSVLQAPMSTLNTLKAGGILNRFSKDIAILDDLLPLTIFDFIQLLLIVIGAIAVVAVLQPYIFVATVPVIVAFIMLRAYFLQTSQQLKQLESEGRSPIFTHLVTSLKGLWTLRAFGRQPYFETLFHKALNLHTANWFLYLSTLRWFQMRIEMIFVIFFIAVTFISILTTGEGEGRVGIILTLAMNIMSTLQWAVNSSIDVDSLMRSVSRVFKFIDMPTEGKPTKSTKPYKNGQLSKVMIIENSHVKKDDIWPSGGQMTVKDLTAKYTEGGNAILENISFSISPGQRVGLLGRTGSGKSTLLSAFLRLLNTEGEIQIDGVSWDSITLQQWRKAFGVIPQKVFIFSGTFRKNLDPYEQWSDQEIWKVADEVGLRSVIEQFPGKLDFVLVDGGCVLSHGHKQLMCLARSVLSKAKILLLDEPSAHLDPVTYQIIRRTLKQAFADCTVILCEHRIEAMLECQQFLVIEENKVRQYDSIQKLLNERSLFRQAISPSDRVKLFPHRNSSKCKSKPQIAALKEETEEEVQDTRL

For the compound `Cc1nn2c(C)c(C(=O)O)nnc2c1-c1ccc(OC(C)(C)C)cc1` [Compound C-56], the response was half-maximal at 11.6 µM (EC50); the Emax (as a rule, the maximal effect, on the per cent scale that the assay sets) was determined as 20%; the “Efficacy Comparison to 3 μM VX-809” value is on record as “Less than VX-809”.

As to `CCOc1ccc(-c2c(C)nn3c(C)c(C(=O)O)nnc23)cc1` [Compound C-7], the half-maximal effective concentration (EC50) (in general, the concentration that produces a half-maximal response) came out at 7 µM; the maximum response (Emax) was found to be 220%; the “Efficacy Comparison to 3 μM VX-809” value was 3-fold greater than VX-809.

Consider `Cc1nn2c(C)c(C(=O)O)nnc2c1-c1ccc(Cl)cc1` [Compound C-1], for which the EC50 worked out at 1.9 µM and the Emax is 200%.

Turning to `O=C(O)c1cn2ncc(-c3ccc(Cl)cc3)c2nn1` [Compound C-4], the “EC50 (μM)” value is “No effect” and the maximal response (Emax) turned out to be 0%.

`O=C(O)c1ccc2c(-c3ccc(Cl)c(Cl)c3)noc2n1` [Compound C-68] yielded an Emax of 25%.

Take `CNC(=O)c1nnc2c(-c3ccc(Cl)c(Cl)c3)c(C)nn2c1C` [Compound C-30]: the EC50 worked out at 26.3 µM, the Emax was 50% and the “Efficacy Comparison to 3 μM VX-809” value is “Less than VX-809”.

`CCOC(=O)c1ccc2c(-c3ccc(Cl)c(Cl)c3)noc2n1` [Compound C-68.1] had a maximum response (Emax) of 20%.

With `O=C(O)c1ccc2c(-c3ccc(Cl)c(Cl)c3)n[nH]c2n1` [Compound C-66], the Emax was 25%.

On to `Cc1nn2c(C)c(C(=O)OC(C)C)nnc2c1-c1ccc(Cl)cc1` [Compound C-21], for which the EC50 came out at 1.1 µM, the Emax amounted to 50% and the “Efficacy Comparison to 3 μM VX-809” value was 2.5-fold greater than VX-809.

For `CCCOC(=O)c1nnc2c(-c3ccc(Cl)cc3)c(C)nn2c1C` [Compound C-20], a half-maximal response (EC50) required 2 µM, the Emax is 100% and the “Efficacy Comparison to 3 μM VX-809” value was 2.5-fold greater than VX-809.

Consider `Cc1nn2c(N)c(C(=O)O)nnc2c1-c1ccc(Cl)cc1` [Compound C-27], for which the EC50 is 3.3 µM, the Emax is 90% and the “Efficacy Comparison to 3 μM VX-809” value is reported as 2-fold greater than VX-809.

For the compound `Cc1nn2c(C)c(C(=O)N(C)C)nnc2c1-c1ccc(Cl)c(Cl)c1` [Compound C-31], the “EC50 (μM)” value is “No effect” and the Emax worked out at 0%.

For `COC(=O)C(=O)c1nnc2c(-c3ccc(Cl)c(Cl)c3)c(C)nn2c1C` [Compound C-32.1], the “EC50 (μM)” value was “No effect (toxic” and the maximal response (Emax) worked out at 5%.

As to `CCCOc1ccc(-c2c(C)nn3c(C)c(C(=O)O)nnc23)cc1` [Compound C-8], the EC50 turned out to be 5.7 µM, the Emax was 155% and the “Efficacy Comparison to 3 μM VX-809” value is listed as 2-fold greater than VX-809.

In the case of `Cc1nn2c(C)c(C(=O)C(=O)O)nnc2c1-c1ccc(Cl)c(Cl)c1` [Compound C-32], a half-maximal response (EC50) required 6 µM, the Emax came to 160% and the “Efficacy Comparison to 3 μM VX-809” value is 2.5-fold greater than VX-809.

Regarding `Cc1nn2c(C)c(-c3nnco3)nnc2c1-c1ccc(Cl)c(Cl)c1` [Compound C-43], a half-maximal response (EC50) required 11 µM, the Emax is 50% and the “Efficacy Comparison to 3 μM VX-809” value is listed as “Equivalent to VX-809”.

As to `Cc1cnc(-c2nnc3c(-c4ccc(Cl)c(Cl)c4)c(C)nn3c2C)o1` [Compound C-41], the “EC50 (μM)” value is given as “No effect” and the Emax is 0%.

`Cc1nn2c(C)c(C(=O)O)nnc2c1Cc1ccc(Cl)c(Cl)c1` [Compound C-53]: the Emax amounted to 75% and the “Efficacy Comparison to 3 μM VX-809” value is listed as “Less than VX-809”.

On to `Cc1nn2c(C)c(C(=O)OC(C)C)nnc2c1-c1ccc(Cl)c(Cl)c1` [Compound C-49], for which the response was half-maximal at 2 µM (EC50), the Emax stood at 50% and the “Efficacy Comparison to 3 μM VX-809” value is on record as “Equivalent to VX-809”.

Regarding `Cc1nn2c(C)c(C(N)=O)nnc2c1-c1ccc(Cl)c(Cl)c1` [Compound C-29], the “EC50 (μM)” value is listed as “No effect” and the maximum response (Emax) came out at 0%.

With `CCS(=O)(=O)NC(=O)c1nnc2c(-c3ccc(Cl)c(Cl)c3)c(C)nn2c1C` [Compound C-37], the EC50 came out at 5.1 µM, the Emax is 80% and the “Efficacy Comparison to 3 μM VX-809” value was “Equivalent to VX-809”.

`CCS(=O)(=O)Cc1nnc2c(-c3ccc(Cl)c(Cl)c3)c(C)nn2c1C` [Compound C-71]: the response was half-maximal at 6.9 µM (EC50), the maximal effect (Emax) came to 130% and the “Efficacy Comparison to 3 μM VX-809” value was “Equivalent to VX-809”.

As to `Cc1c(C(=O)O)nnc2c(-c3ccc(Cl)cc3)c(-c3ccc(Cl)cc3)nn12` [Compound C-10], the “EC50 (μM)” value is “No effect” and the Emax came to 40%.

For the compound `Cc1nn2c(C)c(C(=O)O)nnc2c1-c1ccc(Cl)c(Cl)c1` [Compound C-5], the midpoint of the response, the EC50, lay at 0.1 µM; the Emax was determined as 160%; the “Efficacy Comparison to 3 μM VX-809” value was 10-fold greater than VX-809; the “potency and efficacy versus VX-809 in SPQ profiling” value is “superior potency and efficacy to VX-809”.

Turning to `Cc1c(C(=O)O)nnc2c(-c3ccccc3)c(-c3ccccc3)nn12` [Compound C-11], the “EC50 (μM)” value is recorded as “No effect” and the Emax was found to be 0%.

For `Cc1nn2c(C)c(C(=O)O)nnc2c1-c1ccc2c(c1)OCCO2` [Compound C-58], the Emax amounted to 100%.

For the compound `CCOC(=O)c1nnc2c(-c3ccc(O)cc3)c(C)nn2c1C` [Compound C-19], the “EC50 (μM)” value is reported as “No effect” and the Emax was 0%.

For `Cc1nn2cc(C(=O)O)nnc2c1-c1ccc(Cl)cc1` [Compound C-3], the EC50 was determined as 11.5 µM, the Emax stood at 200% and the “Efficacy Comparison to 3 μM VX-809” value is “Equivalent to VX-809”.

For `COc1cc(-c2c(C)nn3c(C)c(C(=O)O)nnc23)ccc1Cl` [Compound C-59.1], the EC50 stood at 10.5 µM, the maximum response (Emax) is 40% and the “Efficacy Comparison to 3 μM VX-809” value is “Less than VX-809”.

Regarding `CCCOc1ccc(-c2c(C)nn3c(C)c(C(=O)OCC)nnc23)cc1` [Compound C-18], the EC50 stood at 3.1 µM, the Emax came to 20% and the “Efficacy Comparison to 3 μM VX-809” value is “Less than VX-809”.

Compound `CCCOc1cc(-c2c(C)nn3c(C)c(C(=O)O)nnc23)ccc1Cl` [Compound C-72] had an EC50 of 2.3 µM and an Emax of 90%.

With `COc1ccc(-c2c(C)nn3c(C)c(C(=O)O)nnc23)cc1OC` [Compound C-6], a half-maximal response (EC50) required 9.9 µM, the Emax was found to be 170% and the “Efficacy Comparison to 3 μM VX-809” value is given as 3-fold greater than VX-809.

For `Cc1nn2c(C)c(CS(C)(=O)=O)nnc2c1-c1ccc(Cl)c(Cl)c1` [Compound C-70], the EC50 amounted to 3.7 µM, the Emax is 110% and the “Efficacy Comparison to 3 μM VX-809” value was 2-fold greater than VX-809.

As to `Cc1nn2c(N)c(C(=O)O)nnc2c1-c1ccc(Cl)c(Cl)c1` [Compound C-25], the EC50 was 0.83 µM; the Emax came to 100%; the “Efficacy Comparison to 3 μM VX-809” value was 10-fold greater than VX-809; the “potency and efficacy versus VX-809 in SPQ profiling” value was “superior potency and efficacy to VX-809”.

Compound `COc1ccc(Cn2nc(-c3ccc(Cl)c(Cl)c3)c3ccc(C(=O)O)nc32)cc1` [Compound C-66.2] showed an EC50 of 11 µM and an Emax of 100%.

With `Cc1nn2c(C)c(C(=O)O)nnc2c1Cc1ccccc1` [Compound C-52], the EC50 stood at 20 µM, the Emax came to 70% and the “Efficacy Comparison to 3 μM VX-809” value is “Less than VX-809”.

For the compound `CCCCOc1ccc(-c2c(C)nn3c(C)c(C(=O)O)nnc23)cc1` [Compound C-54], the EC50 turned out to be 6.7 µM, the maximal effect (Emax) turned out to be 125% and the “Efficacy Comparison to 3 μM VX-809” value is 2-fold greater than VX-809.

`CCOc1ccc(-c2c(C)nn3c(C)c(C(=O)O)nnc23)cc1Cl` [Compound C-60]: the “EC50 (μM)” value is “No effect” and the Emax worked out at 0%.

Take `CCOC(=O)c1nnc2c(-c3ccc(OCC)cc3)c(C)nn2c1C` [Compound C-17]: the concentration for a half-maximal effect (EC50) was more than 30 µM, the maximal response (Emax) was determined as 75% and the “Efficacy Comparison to 3 μM VX-809” value is “Equivalent to VX-809”.

In the case of `Cc1nn2c(C)c(C(=O)NS(C)(=O)=O)nnc2c1-c1ccc(Cl)c(Cl)c1` [Compound C-36], a half-maximal effect (EC50) was put at 4.8 µM, the maximal response (Emax) worked out at 50% and the “Efficacy Comparison to 3 μM VX-809” value was “Equivalent to VX-809”.

Turning to `Cc1nn2c(C)c(C(=O)Oc3ccccc3)nnc2c1-c1ccc(Cl)c(Cl)c1` [Compound C-35], the midpoint of the response, the EC50, lay at 0.7 µM; the Emax turned out to be 100%; the “Efficacy Comparison to 3 μM VX-809” value was “Equivalent to VX-809”.
